{"source": "ChEMBL document CHEMBL4311972", "about": "“Discovery of a benzothiophene-flavonol halting miltefosine and antimonial drug resistance in Leishmania parasites through the application of medicinal chemistry, screening and genomics” (Eur J Med Chem, 2019)", "key": {"Leishmania infantum [1]": {"system": "Leishmania infantum", "assay": "Antileishmanial activity against Leishmania infantum amastigotes infected in Syrian hamster assessed as reduction in parasite load at 40 mg/kg/day, po for 10 days formulated with 50% v/v cyclodextrin relative to control", "type": "functional", "conditions": "240 h"}, "Albumin [2]": {"biological_target": "Albumin (Homo sapiens, UniProt P02768)", "sequence (P02768 whole entry)": "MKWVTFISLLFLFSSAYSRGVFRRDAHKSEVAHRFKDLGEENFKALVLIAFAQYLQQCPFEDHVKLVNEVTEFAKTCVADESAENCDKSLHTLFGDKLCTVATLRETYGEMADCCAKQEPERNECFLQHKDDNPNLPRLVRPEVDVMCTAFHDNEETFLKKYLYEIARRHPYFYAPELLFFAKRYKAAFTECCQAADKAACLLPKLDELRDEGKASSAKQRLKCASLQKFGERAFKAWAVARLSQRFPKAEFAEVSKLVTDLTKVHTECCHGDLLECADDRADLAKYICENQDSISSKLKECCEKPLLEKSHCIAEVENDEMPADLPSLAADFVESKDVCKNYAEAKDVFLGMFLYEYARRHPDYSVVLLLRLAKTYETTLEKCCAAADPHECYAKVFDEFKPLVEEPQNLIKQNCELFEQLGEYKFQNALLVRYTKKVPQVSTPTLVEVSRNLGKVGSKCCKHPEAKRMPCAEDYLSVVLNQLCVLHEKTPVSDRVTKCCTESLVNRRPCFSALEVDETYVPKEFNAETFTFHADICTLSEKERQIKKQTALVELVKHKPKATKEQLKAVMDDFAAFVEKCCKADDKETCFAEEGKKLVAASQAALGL", "assay": "Binding affinity to human serum albumin by fluorescence based assay", "type": "ADME"}, "Albumin [3]": {"biological_target": "T1, Albumin (Bos taurus, UniProt P02769)", "T1 sequence (P02769 whole entry)": "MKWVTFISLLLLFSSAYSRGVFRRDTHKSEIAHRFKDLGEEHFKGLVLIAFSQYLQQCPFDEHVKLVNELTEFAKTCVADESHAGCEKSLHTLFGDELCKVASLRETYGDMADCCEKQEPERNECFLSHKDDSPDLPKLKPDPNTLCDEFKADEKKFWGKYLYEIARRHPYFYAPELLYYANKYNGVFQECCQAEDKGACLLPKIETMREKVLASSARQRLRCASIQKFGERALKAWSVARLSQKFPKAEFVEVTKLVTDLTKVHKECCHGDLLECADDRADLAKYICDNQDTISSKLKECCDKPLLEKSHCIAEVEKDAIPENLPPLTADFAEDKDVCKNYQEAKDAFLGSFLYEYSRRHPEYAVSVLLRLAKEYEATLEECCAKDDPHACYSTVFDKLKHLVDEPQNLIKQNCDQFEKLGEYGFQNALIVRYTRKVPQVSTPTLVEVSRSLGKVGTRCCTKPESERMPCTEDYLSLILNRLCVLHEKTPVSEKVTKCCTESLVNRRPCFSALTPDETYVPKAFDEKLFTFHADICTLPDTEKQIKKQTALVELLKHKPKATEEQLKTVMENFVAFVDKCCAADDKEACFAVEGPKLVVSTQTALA", "assay": "Binding affinity to bovine serum albumin by fluorescence based assay", "type": "ADME"}, "Leishmania infantum [4]": {"system": "Leishmania infantum", "assay": "Antileishmanial activity against Leishmania infantum amastigotes infected in Syrian hamster assessed as parasite load within spleen at 40 mg/kg/day, po for 10 days formulated with 30% v/v cyclodextrin (reference value: 9874032.937 +/- 3482270.184/g)", "type": "functional"}, "[5]": {"assay": "Selectivity index, ratio of CC50 for human THP1 cells to EC50 for luciferase expressing intracellular amastigote stage of Leishmania infantum infected in human THP1 cells", "type": "toxicity, cell-based", "conditions": "read-out: Ratio CC50/EC50"}, "CYP2C9": {"biological_target": "CYP2C9 (Homo sapiens, UniProt P11712)", "sequence (P11712 whole entry)": "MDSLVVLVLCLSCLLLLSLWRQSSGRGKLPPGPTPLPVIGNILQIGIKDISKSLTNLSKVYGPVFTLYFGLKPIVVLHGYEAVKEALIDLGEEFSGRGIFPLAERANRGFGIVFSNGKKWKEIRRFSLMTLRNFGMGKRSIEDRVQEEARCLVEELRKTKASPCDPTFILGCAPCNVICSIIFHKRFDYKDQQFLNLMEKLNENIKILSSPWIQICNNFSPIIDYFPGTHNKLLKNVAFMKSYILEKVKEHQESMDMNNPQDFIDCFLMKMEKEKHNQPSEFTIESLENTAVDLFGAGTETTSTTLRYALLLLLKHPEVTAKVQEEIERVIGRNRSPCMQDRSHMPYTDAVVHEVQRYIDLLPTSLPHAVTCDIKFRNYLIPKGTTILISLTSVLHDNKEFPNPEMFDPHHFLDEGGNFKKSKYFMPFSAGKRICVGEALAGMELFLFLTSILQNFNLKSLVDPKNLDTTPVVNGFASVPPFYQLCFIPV", "assay": "Inhibition of human microsomal CYP2C9 expressed in baculovirus infected insect cells at 10 uM using luciferin-H as substrate preincubated with enzyme/substrate mixture for 30 mins followed by further incubation with NADPH for 30 mins by CYP450 luciferase Glo assay relative to control", "type": "ADME", "conditions": "probe luciferin-H"}, "Leishmania donovani": {"system": "Leishmania donovani", "assay": "Antileishmanial activity against antimony sensitive Leishmania donovani BPK091 promastigotes infected in C57BL/6 mouse bone marrow-derived macrophages assessed as reduction in parasite load at 5 uM treated with compound at 24 hrs post-infection measured after 72 hrs post infection by q-PCR analysis relative to control", "type": "functional"}, "[6]": {"assay": "Toxicity in Syrian hamster infected with Leishmania infantum BCN150 promastigotes assessed as liver weight at 40 mg/kg/day, po for 10 days formulated with 30% v/v cyclodextrin (reference value: 5.102 +/- 0.729 g)", "type": "organism-based, Mesocricetus auratus", "conditions": "in vivo, 240 h"}, "[7]": {"assay": "Toxicity in Syrian hamster infected with Leishmania infantum BCN150 promastigotes assessed as adverse effects at 20 mg/kg/every 12 hrs, po for 10 days formulated with 8% v/v DMSO measured daily", "type": "organism-based, Mesocricetus auratus", "conditions": "in vivo"}, "[8]": {"assay": "Toxicity in Syrian hamster infected with Leishmania infantum BCN150 promastigotes assessed as effect on AST level at 40 mg/kg/day, po for 10 days formulated with 30 to 50% v/v cyclodextrin measured after the last treatment", "type": "organism-based, Mesocricetus auratus", "conditions": "in vivo, 240 h"}, "[9]": {"assay": "Toxicity in Syrian hamster infected with Leishmania infantum BCN150 promastigotes assessed as effect on plasma urea level at 40 mg/kg/day, po for 10 days formulated with 30 to 50% v/v cyclodextrin measured after the last treatment", "type": "organism-based, Mesocricetus auratus", "conditions": "in vivo, 240 h"}, "[10]": {"assay": "Cmax in BALB/c mouse at 1 mg/kg, iv measured upto 72 hrs by snapshot method", "type": "ADME, organism-based", "design": "dose 1 mg/kg, route intravenous", "conditions": "in vivo"}, "[11]": {"assay": "AUC (total) in BALB/c mouse at 1 mg/kg, iv measured upto 72 hrs by snapshot method", "type": "ADME, organism-based", "design": "dose 1 mg/kg, time < 72 hr, route intravenous", "conditions": "in vivo"}, "[12]": {"assay": "Cmax in BALB/c mouse at 20 mg/kg, po measured upto 72 hrs by snapshot method", "type": "ADME, organism-based", "design": "dose 20 mg/kg, route oral", "conditions": "in vivo"}, "[13]": {"assay": "Tmax in BALB/c mouse at 20 mg/kg, po measured upto 72 hrs by snapshot method", "type": "ADME, organism-based", "conditions": "in vivo"}, "[14]": {"assay": "AUC (total) in BALB/c mouse at 20 mg/kg, po measured upto 72 hrs by snapshot method", "type": "ADME, organism-based", "design": "time < 72 hr, dose 20 mg/kg, route oral", "conditions": "in vivo"}, "WI-38": {"system": "WI-38", "assay": "Cytostatic activity against human WI38 cells assessed as reduction in cell growth incubated for 48 hrs by Celltiter-Glo luminescence assay", "type": "cell-based", "conditions": "wi-38, 48 h"}, "[15]": {"assay": "Toxicity in Syrian hamster infected with Leishmania infantum BCN150 promastigotes assessed as liver weight at 40 mg/kg/day, po for 10 days formulated with 8% v/v DMSO (reference value: 5.874 +/- 0.414 g)", "type": "organism-based, Mesocricetus auratus", "conditions": "in vivo, 240 h"}, "[16]": {"assay": "Toxicity in Syrian hamster infected with Leishmania infantum BCN150 promastigotes assessed as effect on alkaline phosphatase level at 40 mg/kg/day, po for 10 days formulated with 8% v/v DMSO measured after the last treatment", "type": "organism-based, Mesocricetus auratus", "conditions": "in vivo, 240 h"}, "[17]": {"assay": "Toxicity in Syrian hamster infected with Leishmania infantum BCN150 promastigotes assessed as effect on ALT level at 40 mg/kg/day, po for 10 days formulated with 8% v/v DMSO measured after the last treatment", "type": "organism-based, Mesocricetus auratus", "conditions": "in vivo, 240 h"}, "[18]": {"assay": "Chemical stability of compound in PBS assessed as decrease in absorbance at 60 uM at pH 7 to 8 measured after exposure to daylight by UV-vis spectrophotometry analysis", "type": "physicochemical", "conditions": "buffer, pH 7, 60 µM"}, "[19]": {"assay": "Stability of the compound in phosphate buffer assessed as compound lifetime at 450 nm at 5 uM measured at pH 8 by fluorescence emission spectrum analysis", "type": "physicochemical", "conditions": "pH 8, 0.45 µM"}, "Albumin [20]": {"biological_target": "T1, Albumin", "assay": "Binding affinity to bovine serum albumin in phosphate buffer assessed as increase in emission anisotropy at 530 nm at 5 uM measured at pH 8 by fluorescence emission spectrum analysis", "type": "ADME", "conditions": "cattle, isolated protein"}, "[21]": {"assay": "Binding affinity to pepsin in porcine gastric mucosa in phosphate buffer assessed as increase in emission intensity at 530 nm at 5 uM measured at pH 8 by fluorescence emission spectrum analysis", "type": "ADME, Sus scrofa", "conditions": "pig"}, "Beta-casein": {"biological_target": "T2, Beta-casein (Bos taurus, UniProt P02666)", "T2 sequence (P02666 whole entry)": "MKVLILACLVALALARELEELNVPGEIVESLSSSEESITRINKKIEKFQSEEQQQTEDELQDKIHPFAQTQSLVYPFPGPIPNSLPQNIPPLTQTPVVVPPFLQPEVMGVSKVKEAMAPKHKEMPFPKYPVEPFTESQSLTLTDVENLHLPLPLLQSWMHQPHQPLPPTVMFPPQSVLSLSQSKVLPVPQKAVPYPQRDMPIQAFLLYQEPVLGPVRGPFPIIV", "assay": "Binding affinity to bovine milk beta-casein in phosphate buffer assessed as increase in emission intensity at 530 nm at 5 uM measured at pH 8 by fluorescence emission spectrum analysis", "type": "ADME", "conditions": "cattle"}, "[22]": {"assay": "Toxicity in Syrian hamster infected with Leishmania infantum BCN150 promastigotes assessed as liver lesions at 40 mg/kg/day, po for 10 days formulated with 8% v/v DMSO measured under necropsy", "type": "organism-based, Mesocricetus auratus", "conditions": "in vivo, 240 h"}, "Leishmania infantum [23]": {"system": "Leishmania infantum", "assay": "Antileishmanial activity against Leishmania infantum amastigotes infected in Syrian hamster assessed as parasite load within liver at 20 mg/kg/day, po for 10 days (reference value: 5333333.333 +/- 3011090.611/g)", "type": "functional"}, "Leishmania infantum [24]": {"system": "Leishmania infantum", "assay": "Antileishmanial activity against Leishmania infantum amastigotes infected in Syrian hamster assessed as parasite load within spleen at 20 mg/kg/day, po for 10 days (reference value: 9151063.431 +/- 2606154.975/g)", "type": "functional"}, "Leishmania infantum [25]": {"system": "Leishmania infantum", "assay": "Anti-leishmanial activity against Leishmania infantum BCN150 promastigotes infected in Syrian hamster assessed as decrease in anti-leishmanial IgG level at 20 mg/kg/day, po for 10 days by ELISA", "type": "functional, organism-based"}, "[26]": {"assay": "Toxicity in Syrian hamster infected with Leishmania infantum BCN150 promastigotes assessed as liver weight at 20 mg/kg/day, po for 10 days (reference value: 5.874 +/- 0.414 g)", "type": "organism-based, Mesocricetus auratus", "conditions": "in vivo, 240 h"}, "[27]": {"assay": "Toxicity in Syrian hamster infected with Leishmania infantum BCN150 promastigotes assessed as spleen lesions at 20 mg/kg/day, po for 10 days", "type": "organism-based, Mesocricetus auratus", "conditions": "in vivo, 240 h"}}, "note": "Where “and” joins values, the source holds several entries; their conditions need not be identical. Identical values can stand only once. Calls of active or inactive are those of the source. The calls are words filed in the database; no cut-off is given here."}
{"smiles": "COc1ccc2oc(-c3csc4ccccc34)c(O)c(=O)c2c1", "values": [{"measurement": "inhibition in vivo at 40 mg/kg/day", "setting": "Leishmania infantum [1]", "value": 35.8, "unit": "%"}, {"measurement": "Kd", "setting": "Albumin [2]", "value": "< 10", "unit": "µM"}, {"measurement": "Kd", "setting": "Albumin [3]", "value": "> 12", "unit": "µM"}, {"measurement": "Activity", "setting": "Leishmania infantum [4]", "value": 7030915.598, "unit": "g⁻¹"}, {"measurement": "selectivity ratio", "setting": "[5]", "value": 17}, {"measurement": "inhibition at 0.5 h, 10 µM", "setting": "CYP2C9", "value": -10, "unit": "%"}, {"measurement": "inhibition at 5 µM", "setting": "Leishmania donovani", "value": 36, "unit": "%"}, {"measurement": "Activity", "setting": "[6]", "value": 5.448, "unit": "g"}, {"measurement": "Activity", "setting": "[7]", "value": "Non-Toxic"}, {"measurement": "Activity", "setting": "[8]", "value": "Non-Toxic"}, {"measurement": "Activity", "setting": "[9]", "value": "Non-Toxic"}, {"measurement": "Cmax", "setting": "[10]", "value": "4.76 µM and 1540 ng/mL"}, {"measurement": "AUC at 72 h", "setting": "[11]", "value": "16.3 µM·h and 5280 ng·h/mL"}, {"measurement": "Cmax", "setting": "[12]", "value": "1.96 µM and 630 ng/mL"}, {"measurement": "Tmax", "setting": "[13]", "value": 1, "unit": "h"}, {"measurement": "AUC at 72 h", "setting": "[14]", "value": "38.5 µM·h and 12500 ng·h/mL"}, {"measurement": "Activity", "setting": "WI-38", "value": "Toxic"}, {"measurement": "Activity", "setting": "[15]", "value": 5.444, "unit": "g"}, {"measurement": "Activity", "setting": "[16]", "value": "Non-Toxic"}, {"measurement": "Activity", "setting": "[17]", "value": "Non-Toxic"}, {"measurement": "Stability", "setting": "[18]", "value": "Unstable"}, {"measurement": "Time", "setting": "[19]", "value": 0.32, "unit": "nanoseconds"}, {"measurement": "Activity", "setting": "Albumin [20]", "value": "Active"}, {"measurement": "Activity", "setting": "[21]", "value": "Active"}, {"measurement": "Activity", "setting": "Beta-casein", "value": "Active"}, {"measurement": "Activity", "setting": "[22]", "value": "Non-Toxic"}]}
{"smiles": "CCCCCCCCCCCCCCCCOP(=O)([O-])OCC[N+](C)(C)C", "note": "[MILTEFOSINE]", "values": [{"measurement": "Activity", "setting": "Leishmania infantum [23]", "value": 1000000, "unit": "g⁻¹"}, {"measurement": "Activity", "setting": "Leishmania infantum [24]", "value": 244476.109, "unit": "g⁻¹"}, {"measurement": "inhibition", "setting": "Leishmania infantum [25]", "value": "Active"}, {"measurement": "Activity", "setting": "[26]", "value": 5.996, "unit": "g"}, {"measurement": "Activity", "setting": "[27]", "value": "Non-Toxic"}]}
